Assay results as given in ChEMBL document CHEMBL1201862, “PubChem BioAssay data set” (2004).
The source made the active and inactive calls.

Assays:
[1] = target: ALK tyrosine kinase receptor (Homo sapiens, UniProt Q9UM73); assay type: functional;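 also: ALK tested as one member of a kinase panel screen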
Wee1-like protein kinase = Wee1-like protein kinase (Homo sapiens, UniProt P30291); experiment: Navigating the Kinome. Panel member name: WEE1; assay type: functional
LIM domain kinase 1 = LIM domain kinase 1 (Homo sapiens, UniProt P53667); experiment: Navigating the Kinome. Panel member name: LIMK1; assay type: functional
[2] = target: Serine/threonine-protein kinase Chk1 (Homo sapiens, UniProt O14757); assay type: functional;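 also: measured as one member of a kinome-wide kinase profiling panel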
[3] = target: Macrophage colony-stimulating factor 1 receptor (Homo sapiens, UniProt P07333); assay type: functional;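 also: value comes from the Navigating the Kinome screening panel, CSF1R member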
[4] = target: T1, High affinity choline transporter 1 (Homo sapiens, UniProt Q9GZV3); experiment: human choline transporter blockers, potency – cell-based, 10-point CRC, membrane potential dye, dose response (AID 588401); assay type: functional;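 also: membrane potential dye fluorescence of choline-evoked depolarization via CHT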
T1 sequence (Q9GZV3 whole entry): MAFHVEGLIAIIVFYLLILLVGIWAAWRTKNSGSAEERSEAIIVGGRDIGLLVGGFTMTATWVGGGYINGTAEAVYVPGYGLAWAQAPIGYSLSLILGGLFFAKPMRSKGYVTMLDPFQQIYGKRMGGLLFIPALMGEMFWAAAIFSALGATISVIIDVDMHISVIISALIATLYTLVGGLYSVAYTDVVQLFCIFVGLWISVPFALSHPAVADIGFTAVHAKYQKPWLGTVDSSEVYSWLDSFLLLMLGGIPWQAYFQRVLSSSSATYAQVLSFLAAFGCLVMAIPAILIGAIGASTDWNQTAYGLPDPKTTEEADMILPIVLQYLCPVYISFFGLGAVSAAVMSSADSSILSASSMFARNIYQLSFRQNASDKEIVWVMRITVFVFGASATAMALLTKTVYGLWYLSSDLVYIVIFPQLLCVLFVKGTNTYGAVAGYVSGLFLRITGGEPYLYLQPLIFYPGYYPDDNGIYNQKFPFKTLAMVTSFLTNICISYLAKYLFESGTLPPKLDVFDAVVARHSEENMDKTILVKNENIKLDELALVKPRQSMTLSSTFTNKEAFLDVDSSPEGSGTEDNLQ

[5] = target: FAD-linked sulfhydryl oxidase ALR (Homo sapiens, UniProt P55789); experiment: ALR-catalysed DTT oxidation blockers – biochemical, H2O2 detection, luminescence, cherry-pick, dose response (AID 493248)
[6] = target: T1, High affinity choline transporter 1; experiment: human choline transporter blockers, potency – cell-based, 5-point CRC, membrane potential dye, dose response (AID 504840); assay type: functional
[7] = target: Casein kinase II subunit alpha (Homo sapiens, UniProt P68400); assay type: functional
Aurora kinase B = Aurora kinase B (Homo sapiens, UniProt Q96GD4); assay type: functional
[8] = target: Mitogen-activated protein kinase kinase kinase kinase 5 (Homo sapiens, UniProt Q9Y4K4); assay type: functional;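 also: measured as one member of a kinome-spanning kinase panel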
[9] = target: Serine/threonine-protein kinase pim-1 (Homo sapiens, UniProt P11309); assay type: functional
[10] = target: Melanin-concentrating hormone receptor 1 (Homo sapiens, UniProt Q99705); experiment: Late-stage fluorescence-based counterscreen for antagonists of the G-protein coupled receptor 7 (GPR7): cell-based dose response assay to identify antagonists of the melanin-concentrating hormone receptor 1 (MCHR1) Set 5.; assay type: functional
[11] = target: Neuropeptides B/W receptor type 1 (Homo sapiens, UniProt P48145); experiment: human NPBW1 receptor blockade, IC50 – cell-based, fluorescence, dose response, set 5, late-stage follow-up (AID 588566); assay type: functional
[12] = target: Leukocyte tyrosine kinase receptor (Homo sapiens, UniProt P29376); experiment: Navigating the Kinome. Panel member name: LTK; assay type: functional
[13] = target: High affinity nerve growth factor receptor (Homo sapiens, UniProt P04629); assay type: functional;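 also: NTRK1 tested as one member of a kinome-wide profiling panel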
[14] = target: Cyclin-dependent kinase 19 (Homo sapiens, UniProt Q9BWU1); experiment: Navigating the Kinome. Panel member name: CDC2L6; assay type: functional
[15] = target: Hepatocyte growth factor receptor (Homo sapiens, UniProt P08581); assay type: functional;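 also: kinase panel profiling across the kinome, with MET as the panel member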
[16] = target: MAP kinase-activated protein kinase 3 (Homo sapiens, UniProt Q16644); assay type: functional;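 also: value comes from a kinome-wide profiling panel in which MAPKAPK3 is one of the panel members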
[17] = target: Lymphokine-activated killer T-cell-originated protein kinase (Homo sapiens, UniProt Q96KB5); assay type: functional;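 also: value comes from a kinase panel screen in which TOPK was one of the panel members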
Lymphokine-activated killer T-cell-originated protein kinase, sequence (Q96KB5 whole entry): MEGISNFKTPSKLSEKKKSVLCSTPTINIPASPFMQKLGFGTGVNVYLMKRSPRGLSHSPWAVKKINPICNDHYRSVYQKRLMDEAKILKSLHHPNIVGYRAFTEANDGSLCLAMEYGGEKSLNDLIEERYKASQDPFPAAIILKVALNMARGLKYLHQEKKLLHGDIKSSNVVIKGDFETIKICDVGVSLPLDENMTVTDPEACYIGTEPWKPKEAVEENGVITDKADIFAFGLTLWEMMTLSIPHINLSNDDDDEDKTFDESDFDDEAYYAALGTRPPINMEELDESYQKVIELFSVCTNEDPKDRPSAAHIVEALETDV

Serine/threonine-protein kinase pim-1, sequence (P11309 whole entry): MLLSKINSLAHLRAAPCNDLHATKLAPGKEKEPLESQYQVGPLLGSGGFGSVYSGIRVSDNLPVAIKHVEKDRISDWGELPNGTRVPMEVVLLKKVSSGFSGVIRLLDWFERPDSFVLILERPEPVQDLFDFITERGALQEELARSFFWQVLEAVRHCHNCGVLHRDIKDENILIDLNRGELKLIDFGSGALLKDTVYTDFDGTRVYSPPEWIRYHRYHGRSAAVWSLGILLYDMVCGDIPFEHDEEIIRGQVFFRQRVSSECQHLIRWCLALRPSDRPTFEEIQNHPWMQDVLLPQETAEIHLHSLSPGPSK
Melanin-concentrating hormone receptor 1, sequence (Q99705 whole entry): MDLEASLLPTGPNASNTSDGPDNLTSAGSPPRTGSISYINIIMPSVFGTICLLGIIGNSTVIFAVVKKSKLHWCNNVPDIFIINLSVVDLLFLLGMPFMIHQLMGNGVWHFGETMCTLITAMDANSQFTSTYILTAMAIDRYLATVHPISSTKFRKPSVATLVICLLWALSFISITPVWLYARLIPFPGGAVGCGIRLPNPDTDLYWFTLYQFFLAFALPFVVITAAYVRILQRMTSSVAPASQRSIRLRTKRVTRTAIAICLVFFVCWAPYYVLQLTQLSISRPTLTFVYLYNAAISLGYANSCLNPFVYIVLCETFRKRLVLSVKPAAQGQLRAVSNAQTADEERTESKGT
ALK tyrosine kinase receptor, sequence (Q9UM73 whole entry): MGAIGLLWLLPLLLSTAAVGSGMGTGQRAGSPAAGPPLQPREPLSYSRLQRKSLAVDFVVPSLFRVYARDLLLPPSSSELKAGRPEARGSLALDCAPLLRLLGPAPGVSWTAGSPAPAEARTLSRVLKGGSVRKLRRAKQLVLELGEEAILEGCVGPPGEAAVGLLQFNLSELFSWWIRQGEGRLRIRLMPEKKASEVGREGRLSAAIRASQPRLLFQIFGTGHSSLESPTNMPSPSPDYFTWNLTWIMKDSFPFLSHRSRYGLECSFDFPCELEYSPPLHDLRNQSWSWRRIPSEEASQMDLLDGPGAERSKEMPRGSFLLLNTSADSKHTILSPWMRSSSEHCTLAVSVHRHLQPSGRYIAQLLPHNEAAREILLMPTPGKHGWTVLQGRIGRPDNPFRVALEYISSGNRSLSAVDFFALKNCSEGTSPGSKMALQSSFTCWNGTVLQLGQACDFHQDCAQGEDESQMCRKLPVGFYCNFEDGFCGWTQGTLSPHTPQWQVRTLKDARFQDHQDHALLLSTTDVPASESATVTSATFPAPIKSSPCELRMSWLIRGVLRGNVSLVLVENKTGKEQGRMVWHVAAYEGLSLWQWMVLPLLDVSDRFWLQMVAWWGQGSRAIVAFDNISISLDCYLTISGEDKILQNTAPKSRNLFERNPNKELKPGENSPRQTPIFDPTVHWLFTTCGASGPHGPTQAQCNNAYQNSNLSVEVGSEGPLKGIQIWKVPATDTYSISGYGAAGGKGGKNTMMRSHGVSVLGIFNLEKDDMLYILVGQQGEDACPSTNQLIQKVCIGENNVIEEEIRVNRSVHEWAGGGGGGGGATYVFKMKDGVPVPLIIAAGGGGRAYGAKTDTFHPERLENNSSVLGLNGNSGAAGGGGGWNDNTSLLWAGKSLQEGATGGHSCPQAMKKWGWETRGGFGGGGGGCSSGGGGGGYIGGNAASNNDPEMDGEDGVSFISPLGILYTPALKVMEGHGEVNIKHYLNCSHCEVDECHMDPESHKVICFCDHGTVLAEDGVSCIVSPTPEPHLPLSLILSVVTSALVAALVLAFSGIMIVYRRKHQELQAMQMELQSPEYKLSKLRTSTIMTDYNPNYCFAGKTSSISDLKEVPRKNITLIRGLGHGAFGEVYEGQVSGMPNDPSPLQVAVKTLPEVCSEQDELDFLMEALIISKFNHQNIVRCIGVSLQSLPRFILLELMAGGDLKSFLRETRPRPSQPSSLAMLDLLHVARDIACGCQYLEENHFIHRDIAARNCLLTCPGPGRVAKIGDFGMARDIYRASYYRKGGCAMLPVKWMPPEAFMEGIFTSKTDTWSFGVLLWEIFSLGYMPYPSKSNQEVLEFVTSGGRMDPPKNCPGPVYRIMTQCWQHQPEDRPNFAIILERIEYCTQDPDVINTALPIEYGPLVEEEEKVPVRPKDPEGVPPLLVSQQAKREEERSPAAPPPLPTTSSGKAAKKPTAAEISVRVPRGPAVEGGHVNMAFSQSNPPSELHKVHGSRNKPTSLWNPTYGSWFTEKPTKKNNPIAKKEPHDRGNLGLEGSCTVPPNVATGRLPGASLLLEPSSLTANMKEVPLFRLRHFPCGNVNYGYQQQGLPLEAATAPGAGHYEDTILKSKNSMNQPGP
Wee1-like protein kinase, sequence (P30291 whole entry, the tested form may be a part): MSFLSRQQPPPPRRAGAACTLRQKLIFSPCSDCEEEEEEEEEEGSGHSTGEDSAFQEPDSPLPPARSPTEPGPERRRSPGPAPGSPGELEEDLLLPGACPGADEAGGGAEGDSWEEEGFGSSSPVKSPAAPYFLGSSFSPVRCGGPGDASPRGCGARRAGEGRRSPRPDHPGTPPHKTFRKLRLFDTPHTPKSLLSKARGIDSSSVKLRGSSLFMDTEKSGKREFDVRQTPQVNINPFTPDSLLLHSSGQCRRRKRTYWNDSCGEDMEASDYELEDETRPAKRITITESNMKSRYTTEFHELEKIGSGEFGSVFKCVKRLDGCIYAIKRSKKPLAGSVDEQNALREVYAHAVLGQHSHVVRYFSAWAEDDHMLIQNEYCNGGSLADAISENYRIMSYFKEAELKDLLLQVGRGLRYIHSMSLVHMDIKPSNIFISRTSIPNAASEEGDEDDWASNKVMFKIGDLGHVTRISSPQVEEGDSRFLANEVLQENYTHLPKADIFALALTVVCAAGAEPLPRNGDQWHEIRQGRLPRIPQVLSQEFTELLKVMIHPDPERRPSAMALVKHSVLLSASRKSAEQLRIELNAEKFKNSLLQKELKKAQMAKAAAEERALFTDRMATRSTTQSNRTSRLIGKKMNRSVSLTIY
Aurora kinase B, sequence (Q96GD4 whole entry): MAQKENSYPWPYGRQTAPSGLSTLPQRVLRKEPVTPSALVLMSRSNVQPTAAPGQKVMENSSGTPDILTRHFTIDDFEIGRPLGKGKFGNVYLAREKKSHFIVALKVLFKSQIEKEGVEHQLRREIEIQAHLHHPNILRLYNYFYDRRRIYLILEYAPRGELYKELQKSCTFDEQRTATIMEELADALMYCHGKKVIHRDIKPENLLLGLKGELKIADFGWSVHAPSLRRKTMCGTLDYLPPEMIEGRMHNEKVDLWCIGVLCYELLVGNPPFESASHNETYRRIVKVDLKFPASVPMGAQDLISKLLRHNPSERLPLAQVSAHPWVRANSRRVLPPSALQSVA
High affinity nerve growth factor receptor, sequence (P04629 whole entry): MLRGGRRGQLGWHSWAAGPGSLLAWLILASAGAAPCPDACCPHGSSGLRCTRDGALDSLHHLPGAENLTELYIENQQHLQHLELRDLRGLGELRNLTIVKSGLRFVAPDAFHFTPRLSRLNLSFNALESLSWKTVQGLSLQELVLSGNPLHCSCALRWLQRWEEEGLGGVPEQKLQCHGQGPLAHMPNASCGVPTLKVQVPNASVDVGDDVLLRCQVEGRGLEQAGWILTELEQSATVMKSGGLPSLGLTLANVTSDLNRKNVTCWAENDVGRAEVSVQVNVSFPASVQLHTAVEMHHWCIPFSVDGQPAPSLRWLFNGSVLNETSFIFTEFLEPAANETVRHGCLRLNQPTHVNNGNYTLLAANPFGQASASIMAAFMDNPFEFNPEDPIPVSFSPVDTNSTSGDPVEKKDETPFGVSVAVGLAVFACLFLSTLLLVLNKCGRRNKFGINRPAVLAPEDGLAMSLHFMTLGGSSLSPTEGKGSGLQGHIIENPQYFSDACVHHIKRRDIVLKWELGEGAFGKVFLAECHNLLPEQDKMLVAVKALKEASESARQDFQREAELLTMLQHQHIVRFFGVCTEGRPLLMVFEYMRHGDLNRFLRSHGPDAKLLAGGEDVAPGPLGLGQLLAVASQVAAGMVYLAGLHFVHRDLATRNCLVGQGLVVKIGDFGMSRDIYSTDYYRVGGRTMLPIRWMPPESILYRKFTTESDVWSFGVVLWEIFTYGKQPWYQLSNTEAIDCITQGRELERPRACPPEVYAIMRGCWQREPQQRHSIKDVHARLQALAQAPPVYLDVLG
MAP kinase-activated protein kinase 3, sequence (Q16644 whole entry): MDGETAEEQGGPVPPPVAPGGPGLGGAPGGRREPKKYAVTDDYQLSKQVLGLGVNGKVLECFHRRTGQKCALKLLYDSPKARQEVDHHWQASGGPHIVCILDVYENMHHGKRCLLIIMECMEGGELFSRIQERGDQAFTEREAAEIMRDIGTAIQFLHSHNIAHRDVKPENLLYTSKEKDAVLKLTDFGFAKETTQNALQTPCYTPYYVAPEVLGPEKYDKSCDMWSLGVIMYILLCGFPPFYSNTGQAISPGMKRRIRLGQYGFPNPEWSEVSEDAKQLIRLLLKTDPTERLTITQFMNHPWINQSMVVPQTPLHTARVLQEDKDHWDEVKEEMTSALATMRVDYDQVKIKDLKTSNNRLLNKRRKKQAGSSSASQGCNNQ
FAD-linked sulfhydryl oxidase ALR, sequence (P55789 whole entry): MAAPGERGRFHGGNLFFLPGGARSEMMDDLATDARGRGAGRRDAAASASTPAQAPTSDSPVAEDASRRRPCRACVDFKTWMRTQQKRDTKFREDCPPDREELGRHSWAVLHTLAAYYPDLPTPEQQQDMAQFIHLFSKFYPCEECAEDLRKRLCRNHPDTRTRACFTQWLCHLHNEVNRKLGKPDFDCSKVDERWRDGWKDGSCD

For `CNc1nc(C)c(-c2ccnc(Nc3ccc(N4CCN(C(C)=O)CC4)cc3)n2)s1`, the Ki [1] was 2.51 µM (active) and the Ki (Wee1-like protein kinase) was 0.2 µM (active).

For `c1ccc(-c2ncc3ccccn23)cc1`, the Ki (LIM domain kinase 1) was 10 µM (active), the Ki [2] was 25.1 µM (active) and the Ki [3] was > 100 µM (inactive).

With `Oc1ccc(CC2CC3CCN2CC3)cc1O` (stereo unspecified) the IC50 [4] was 1.15 µM (active), the AC50 [5] was 3.81 µM (active) and the IC50 [6] was 1.08 µM (active).

In the case of `COc1ccc(C=C2C(=O)ON=C2c2ccc(Br)cc2)cc1`, the Ki [7] is reported as 3.98 µM (active), the Ki (Aurora kinase B) is reported as 1.58 µM (active) and the Ki [8] is reported as 2 µM (active). For the same molecule, the Ki [9] was 1.58 µM (active).

In the case of `CCOc1ccc(Sc2c(Cl)cnn(Cc3cccc4ccccc34)c2=O)cc1`, the IC50 [10] is reported as > 20 µM (inactive) and the IC50 [11] is reported as 0.887 µM (active).

For `CCc1cc(-c2n[nH]c(C)c2-c2ccc3c(c2)OCCO3)c(O)cc1O`, the Ki [12] was 2.51 µM (active), the Ki [9] was 1.58 µM (active) and the Ki [13] was > 15.8 µM (inactive). For the same molecule, the Ki [14] was > 100 µM (inactive) and the Ki [15] was 2.51 µM (active).

With `COc1cc2ncnc(Nc3ccc(F)c(Cl)c3)c2cc1OCCCN1CCOCC1` [GEFITINIB] the Ki [16] was > 10 µM (inactive) and the Ki [17] was > 10 µM (inactive).
